Experimental data reported in ChEMBL document CHEMBL4138289, “Structurally Diverse Cytotoxic Dimeric Chalcones from Oxytropis chiliophylla” (J Nat Prod, 2018).

How the values were obtained:
PC-3 [1] = experiment: Cytotoxicity against human PC3 cells at 25 uM after 48 hrs by MTT assay relative to control; format: functional
PC-3 [2] = experiment: Cytotoxicity against human PC3 cells at 5 uM after 48 hrs by MTT assay relative to control; format: functional
PC-3 [3] = experiment: Growth inhibition of human PC3 cells after 48 hrs by MTT assay; format: functional, cell-based; settings: PC-3, 48 h

**Q.** For `O=C(c1ccc(O)cc1O)[C@@H]1[C@H](C(=O)c2ccc(O)cc2O)[C@@H](c2ccccc2)[C@H]1c1ccccc1`, which Activity (PC-3 [1]) is on record?
**A.** 78.8%

**Q.** What about the Activity (PC-3 [2]) of the same molecule?
**A.** 27.1%

**Q.** Which results are given for `O=C(c1ccc(O)cc1O)[C@@H]1[C@@H](C(=O)c2ccc(O)cc2O)[C@H](c2ccccc2)[C@H]1c1ccccc1`?
**A.** Activity (PC-3 [1]): 96.3%; Activity (PC-3 [2]): 41.2%; IC50 (PC-3 [3]): 3.8 µM

**Q.** How did the Activity (PC-3 [1]) turn out when `O=C(c1ccc(O)cc1O)[C@@H]1Cc2ccccc2[C@H](C(=O)c2ccc(O)cc2O)[C@@H]1c1ccccc1` was run?
**A.** 73.4%

**Q.** What about the Activity (PC-3 [2]) of the same molecule?
**A.** 22.3%

**Q.** Which results are given for `O=C(c1ccc(O)cc1O)[C@H]1Cc2ccccc2[C@@H](C(=O)c2ccc(O)cc2O)[C@H]1c1ccccc1`?
**A.** Activity (PC-3 [1]): 86.3%; Activity (PC-3 [2]): 46.1%

**Q.** Which Activity (PC-3 [1]) does the source give for `O=C(c1ccc(O)cc1O)[C@H]1[C@H](c2ccccc2)[C@@H](C(=O)c2ccc(O)cc2O)[C@@H]1c1ccccc1` here?
**A.** 76.7%

**Q.** And the Activity (PC-3 [2])?
**A.** 12.8%

**Q.** How did the Activity (PC-3 [1]) turn out when `O=C(c1ccc(O)cc1O)[C@H]1[C@H](C(=O)c2ccc(O)cc2O)[C@H](c2ccccc2)[C@@H]1c1ccccc1` was run?
**A.** 87.6%

**Q.** What about the Activity (PC-3 [2]) of the same molecule?
**A.** 30.7%

**Q.** How did the Activity (PC-3 [1]) turn out when `O=C(c1ccc(O)cc1O)[C@@H]1[C@@H](C(=O)c2ccc(O)cc2O)[C@H](c2ccccc2)[C@@H]1c1ccccc1` was run?
**A.** 75.5%

**Q.** And the Activity (PC-3 [2])?
**A.** 29%

**Q.** For `O=C(c1ccc(O)cc1O)[C@H]1[C@H](C(=O)c2ccc(O)cc2O)[C@@H](c2ccccc2)[C@@H]1c1ccccc1`, which Activity (PC-3 [1]) is on record?
**A.** 97.6%

**Q.** And the Activity (PC-3 [2])?
**A.** 49.7%

**Q.** What about the IC50 (PC-3 [3]) of the same molecule?
**A.** 3.5 µM

**Q.** What does the source list for `O=C(c1ccc(O)cc1O)[C@H]1[C@H](c2ccccc2)[C@H](C(=O)c2ccc(O)cc2O)[C@H]1c1ccccc1`?
**A.** Activity (PC-3 [1]): 88%; Activity (PC-3 [2]): 29.6%

**Q.** For `O=C(c1ccc(O)cc1O)[C@H]1[C@H](c2ccccc2)[C@H](C(=O)c2ccc(O)cc2O)[C@@H]1c1ccccc1`, which Activity (PC-3 [1]) is on record?
**A.** 57.9%

**Q.** What about the Activity (PC-3 [2]) of the same molecule?
**A.** 12.3%

**Q.** Which results are given for `O=C(/C=C/c1ccccc1)c1ccc(O)cc1O` [2',4'-DIHYDROXYCHALCONE]?
**A.** Activity (PC-3 [1]): 66.2%; Activity (PC-3 [2]): 16.6%
